SMILES strings stand for the structures. A value given as a limit tells only on which side of the number the result lay.

In this experiment the test system is HCV replicon. The experiment can be described thus: HCV replicon replication assay (NPTII ELISA). Type of experiment: cell-based, Hepatitis C virus (Huh-7 cells). The conditions noted are these: Hepatitis C virus, Huh-7, 72 h, inhibition of HCV replicon replication in Huh-7 HCV replicon-containing cells, three days incubation, NPT level by ELISA; read-out: EC50. Put shortly:
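Huh-7 cells carrying a Bartenschlager NPTII (neo) HCV replicon, treated 3 days at 37 °C with compound, generally 6 concentrations from 10 to 0.03 micromolar, in equal DMSO across wells. NPTII level, proportional to replication, read by capture ELISA on methanol:acetone-fixed cells; interferon alpha positive control; toxicity scored visually or by MTS.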
As a reminder, the EC50 is the concentration at which the effect is half-maximal. With `CCCCCCCCOc1ccc(N(C(=O)OCCOCCOCCOCCOC)c2nc(-c3cccnc3)c(F)s2)cc1C(F)(F)F` [Compound 171, 2,5,8,11-tetraoxatridecan-13-yl 5-fluoro-4-(pyridin-3-yl)thiazol-2-yl(4-(octyloxy)-3-(trifluoromethyl)phenyl)carbamate], the EC50 is less than 1 µM. In the case of `CCCCCCCCOc1ccc(N(C(=O)COCCOCCOC)c2nc(-c3cccnc3)c(F)s2)cc1C(F)(F)F` [Compound 172, N-(5-fluoro-4-(pyridin-3-yl)thiazol-2-yl)-2-(2-(2-methoxyethoxy)ethoxy)-N-(4-(octyloxy)-3-(trifluoromethyl)phenyl)acetamide], the EC50 was less than 1 µM.

Take `CN(C)CC(=O)N(c1ccc(OCCCCc2cccs2)c(C(F)(F)F)c1)c1nc(-c2cccnc2)c(F)s1` [Compound 173, 2-(dimethylamino)-N-(5-fluoro-4-(pyridin-3-yl)thiazol-2-yl)-N-(4-(4-(thiophen-2-yl)butoxy)-3-(trifluoromethyl)phenyl)acetamide]: the EC50 is less than 1 µM. As for `O=C(O)CCC(=O)N(c1ccc(OCCCCc2cccs2)c(C(F)(F)F)c1)c1nc(-c2cccnc2)c(F)s1` [Compound 174, 4-((5-fluoro-4-(pyridin-3-yl)thiazol-2-yl)(4-(4-(thiophen-2-yl)butoxy)-3-(trifluoromethyl)phenyl)amino)-4-oxobutanoic acid], the EC50 is less than 1 µM. `CCCCCCCCc1ccc(N(C(C)=O)c2nc(-c3cccnc3)c(F)s2)cc1C(F)(F)F` [Compound 175, N-(5-fluoro-4-(pyridin-3-yl)thiazol-2-yl)-N-(4-octyl-3-(trifluoromethyl)phenyl)acetamide]: the EC50 is less than 1 µM. The same measure for `CCCCCCCCOc1ccc(N(C(N)=O)c2nc(-c3cccnc3)c(F)s2)cc1C(F)(F)F` [Compound 176, 1-(5-fluoro-4-(pyridin-3-yl)thiazol-2-yl)-1-(4-(octyloxy)-3-(trifluoromethyl)phenyl)urea]: less than 1 µM; for `CCCCCCCCOc1ccc(N(C(C)=O)c2nc(-c3cccnc3)c(F)s2)cc1C(F)(F)F` [Compound 177, N-(5-fluoro-4-(pyridin-3-yl)thiazol-2-yl)-N-(4-(octyloxy)-3-(trifluoromethyl)phenyl)acetamide]: less than 1 µM.

In the case of `CCCCCCCCc1ccc(N(C(N)=O)c2nc(-c3cccnc3)c(F)s2)cc1C(F)(F)F` [Compound 178, 1-(5-fluoro-4-(pyridin-3-yl)thiazol-2-yl)-1-(4-octyl-3-(trifluoromethyl)phenyl)urea], the EC50 is less than 1 µM. Regarding `CCCCCCCCc1ccc(N(C(=O)OCCN(C)C)c2nc(-c3cccnc3)c(F)s2)cc1C(F)(F)F` [Compound 179, 2-(dimethylamino)ethyl 5-fluoro-4-(pyridin-3-yl)thiazol-2-yl(4-octyl-3-(trifluoromethyl)phenyl)carbamate], the EC50 was less than 1 µM. For `CCCCCCCCc1ccc(N(C(=O)C(N)C(C)C)c2nc(-c3cccnc3)c(F)s2)cc1C(F)(F)F` (stereo not shown) [Compound 180, 2-amino-N-(5-fluoro-4-(pyridin-3-yl)thiazol-2-yl)-3-methyl-N-(4-octyl-3-(trifluoromethyl)phenyl)butanamide], the half-maximal effective concentration (EC50) is less than 1 µM. For the compound `CCCCCCCCc1ccc(N(C(=O)OCC[N+](C)(C)C)c2nc(-c3cccnc3)c(F)s2)cc1C(F)(F)F` [Compound 181], the 50% effective concentration (EC50) is less than 1 µM.

For `CCCCCCCCc1ccc(N(C(=O)CC(C)(C)c2c(C)cc(C)cc2OP(=O)(O)O)c2nc(-c3cccnc3)c(F)s2)cc1C(F)(F)F` [Compound 182, 2-(4-((5-fluoro-4-(pyridin-3-yl)thiazol-2-yl)(4-octyl-3-(trifluoromethyl)phenyl)amino)-2-methyl-4-oxobutan-2-yl)-3,5-dimethylphenyl dihydrogen phosphate], the concentration giving a half-maximal response (EC50) lay in the range of 1 to 10 µM.

Consider `CCCCCCCCc1ccc(N(C(=O)OCCOP(=O)(O)O)c2nc(-c3cccnc3)c(F)s2)cc1C(F)(F)F` [Compound 183, 2-(phosphonooxy)ethyl 5-fluoro-4-(pyridin-3-yl)thiazol-2-yl(4-octyl-3-(trifluoromethyl)phenyl)carbamate], for which the EC50 was less than 1 µM.

The values are drawn from patent publication US20070213301A1 (ACHILLION PHARMACEUTICALS, INC., priority 2006, published 2007).
